# ChEMBL document CHEMBL5120980, “Stereoisomers of an Aryl Pyrazole Glucocorticoid Receptor Agonist Scaffold Elicit Differing Anti-inflammatory Responses” (ACS Med Chem Lett, 2022)
# Tests used:
# [1] = target: T1, Glucocorticoid receptor (Rattus norvegicus, UniProt P06536); test: Agonist activity at glucocorticoid receptor in rat INS-1 832/13 cells transfected with CCL2-promoter luciferase plasmid construct assessed as reduction in IL-1 beta induced inflammation by luciferase reporter gene assay; format: cell-based
# T1 sequence (P06536 whole entry): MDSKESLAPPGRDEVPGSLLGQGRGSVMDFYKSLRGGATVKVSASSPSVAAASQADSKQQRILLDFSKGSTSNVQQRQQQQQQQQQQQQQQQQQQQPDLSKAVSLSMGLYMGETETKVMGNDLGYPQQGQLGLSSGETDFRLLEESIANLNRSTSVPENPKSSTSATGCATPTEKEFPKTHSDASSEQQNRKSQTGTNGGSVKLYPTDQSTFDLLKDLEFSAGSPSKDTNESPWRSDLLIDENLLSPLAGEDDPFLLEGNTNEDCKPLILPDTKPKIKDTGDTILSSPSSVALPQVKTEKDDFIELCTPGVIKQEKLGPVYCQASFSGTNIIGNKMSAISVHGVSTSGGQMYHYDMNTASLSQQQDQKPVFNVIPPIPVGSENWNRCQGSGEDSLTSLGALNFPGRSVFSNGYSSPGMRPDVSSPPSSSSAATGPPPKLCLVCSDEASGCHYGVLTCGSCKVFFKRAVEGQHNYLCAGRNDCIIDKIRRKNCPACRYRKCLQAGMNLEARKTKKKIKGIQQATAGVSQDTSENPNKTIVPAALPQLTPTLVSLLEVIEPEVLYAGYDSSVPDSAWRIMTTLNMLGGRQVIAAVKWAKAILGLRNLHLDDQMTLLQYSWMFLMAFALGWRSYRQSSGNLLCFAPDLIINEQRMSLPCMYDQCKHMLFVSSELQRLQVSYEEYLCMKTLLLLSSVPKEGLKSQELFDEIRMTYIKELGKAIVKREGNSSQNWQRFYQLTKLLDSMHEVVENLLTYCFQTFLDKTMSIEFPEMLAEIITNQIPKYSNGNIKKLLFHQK
# [2] = target: T1, Glucocorticoid receptor; test: Agonist activity at glucocorticoid receptor in rat INS-1 832/13 cells transfected with 3XGRE-promoter luciferase plasmid construct assessed as induction of receptor transactivation by luciferase reporter gene assay; format: cell-based
Compound,IC50 [1],EC50 [2]
C[C@]12Cc3cnn(-c4ccc(F)cc4)c3C=C1CCC[C@@H]2[C@@H](O)c1c(F)c(F)c(F)c(F)c1F,31.6 nM,251 nM
C[C@]12Cc3cnn(-c4ccc(F)cc4)c3C=C1CCC[C@@H]2[C@H](O)C1CC1,2000 nM,0.501 nM
C[C@]12Cc3cnn(-c4ccc(F)cc4)c3C=C1CCC[C@@H]2[C@@H](O)C1CC1,31.6 nM,1000 nM
C[C@H](O)[C@H]1CCCC2=Cc3c(cnn3-c3ccc(F)cc3)C[C@@]21C,63.1 nM,2510 nM
CC[C@@H](O)[C@H]1CCCC2=Cc3c(cnn3-c3ccc(F)cc3)C[C@@]21C,15.8 nM,2510 nM
C[C@]12Cc3cnn(-c4ccc(F)cc4)c3C=C1CCC[C@@H]2[C@@H](O)C1CCCC1,398 nM,3160 nM
C[C@]12Cc3cnn(-c4ccc(F)cc4)c3C=C1CCC[C@@H]2CO,5.01 nM,31.6 nM
C[C@]12Cc3cnn(-c4ccc(F)cc4)c3C=C1CCC[C@@H]2[C@H](O)c1c(F)c(F)c(F)c(F)c1F,25.1 nM,2000 nM
C[C@]12Cc3cnn(-c4ccc(F)cc4)c3C=C1CCC[C@@H]2[C@@H](O)c1ccccc1,20 nM,63.1 nM
C[C@@H](O)[C@H]1CCCC2=Cc3c(cnn3-c3ccc(F)cc3)C[C@@]21C,0.316 nM,31.6 nM
CC(C)[C@H](O)[C@H]1CCCC2=Cc3c(cnn3-c3ccc(F)cc3)C[C@@]21C,0.631 nM,1580 nM
C[C@]12Cc3cnn(-c4ccc(F)cc4)c3C=C1CCC[C@@H]2[C@H](O)c1ccccc1,3980 nM,25.1 nM
CC[C@H](O)[C@H]1CCCC2=Cc3c(cnn3-c3ccc(F)cc3)C[C@@]21C,20 nM,10000 nM
CC(C)[C@@H](O)[C@H]1CCCC2=Cc3c(cnn3-c3ccc(F)cc3)C[C@@]21C,158 nM,1580 nM
